We go through two compounds from patent US5371096A, “(3-pyridyl)tetrafuran-2-yl substituted carboxylic acids” (Ciba-Geigy Corporation, priority 1993, dated 1994).

The structures appear in SMILES notation.

Test [1] has as its system U46619-induced platelet aggregation. As to the kind of experiment: inhibition of U46619-induced platelet aggregation after oral dosing in guinea pigs. The test is classed as in vivo, guinea pig. As to the method:
(§1) Such inhibition of platelet aggregation is determined using methodology known in the art, e.g. in vitro in the presence of a compound of the invention in human platelet rich plasma, or by measuring the inhibition of aggregation seen in plasma obtained from a mammal previously administered a compound of the invention, e.g. orally or intravenously when compared to controls. Platelet aggregation is measured in a Born aggregometer and platelet rich plasma is prepared from venous blood e.g. as described in Br. J. Haematol. 43, 637 (1979). Suitable test animals are anesthetized rats or guinea pigs and unanesthetized rabbits or cyanomolgus monkeys.

Test [2] has as its target T1, thromboxane-A2 receptor (Homo sapiens, UniProt P21731).
T1 sequence (P21731 1-343): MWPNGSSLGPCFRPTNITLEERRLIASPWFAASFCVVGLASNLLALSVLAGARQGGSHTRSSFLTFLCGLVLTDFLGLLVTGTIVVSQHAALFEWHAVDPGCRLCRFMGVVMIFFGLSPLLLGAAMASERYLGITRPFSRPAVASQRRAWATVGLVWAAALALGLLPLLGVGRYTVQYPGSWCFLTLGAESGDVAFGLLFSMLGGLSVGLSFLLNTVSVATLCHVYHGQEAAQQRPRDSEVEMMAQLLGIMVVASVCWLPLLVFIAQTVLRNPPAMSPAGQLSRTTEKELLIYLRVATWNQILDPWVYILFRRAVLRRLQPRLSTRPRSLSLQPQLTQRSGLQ
Kind of test: inhibition of U-46619-induced aggregation of aspirinated washed human platelets. Type of test: cell-based. Conditions: in vitro. Also noted: U-46619 induced platelet aggregation of aspirinated human washed platelets and in human platelet rich plasma; endogenous in cells; host or cells: human platelets (aspirinated washed platelets in A1; platelet rich plasma in A2). As to the method:
Acad. Sci. 76, 4097 (1979).
(§2) The inhibition of thromboxane-A2 receptor activity is determined by measuring the inhibition of U-46619 induced platelet aggregation of aspirinated human washed platelets and in human platelet rich plasma. U-46619 is (15S)-hydroxy-11-α,9-α(epoxymethanol)-prosta-(5Z,13E)-dienoic acid, a throm boxane-A2 receptor agonist, as described by Di Minno et at, Thromb. Haemost. 45, 103 (1981).

A further test relates to thromboxane synthetase. Kind of test: serum thromboxane B2, 6-keto-PGF1α and PGE2 levels after oral dosing in cyanomolgus monkeys. The test is classed as in vivo, cyanomolgus monkey. The note with it: 30 mg/kg.
Test [3] concerns the target T1, thromboxane-A2 receptor. As to the kind of experiment: inhibition of U-46619 induced aggregation in human platelet rich plasma. Type of test: cell-based. Conditions: in vitro. As to the method:
as §2, §1

Test [4] relates to U46619-induced ex vivo platelet aggregation. Kind of test: U46619-induced ex vivo platelet aggregation after oral dosing in cyanomolgus monkeys. The note with it: 30 mg/kg. Set-up: species or system cyanomolgus monkey. As to the method:
as §1

The mark [5] stands for this setting: concomitant with serum thromboxane B2 inhibition.

One may read the IC50 as the concentration at which inhibition is half-maximal. For the compound `O=C(O)CC/C=C\CC[C@@H]1[C@@H](OCc2ccc(-c3ccccc3)cc2)CO[C@@H]1c1cccnc1` [Example 1, (Z)-(2S,3S,4R)-7-[4-(1,1'-biphenyl-4-ylmethoxy)-2-(3-pyridyl)tetrahydrofuran-3-yl]-4-heptenoic acid], the “inhibition of U46619-induced platelet aggregation 1 hour post dose” value in test [1] (conscious guinea pigs, oral, 0.3 mg/kg, 1 hour post dose) is recorded as “effectively inhibits”. Besides, the “increase of the concentration of thromboxane-mimetic required to induce 50% maximal aggregation” value in test [1] (guinea pigs, oral dose of 0.23 mg/kg) was 50 fold. This compound had an IC50 at thromboxane-A2 receptor [2] of 26.5 nM. Moreover, the “duration of inhibition of serum thromboxane B2” value in the test with thromboxane synthetase amounted to 24 h. Further, in the test on thromboxane synthetase (setting [5]), the 6-keto-PGF1α level result is reported as “elevations” and the PGE2 level entry is listed as “elevations”. This compound displayed an IC50 at thromboxane-A2 receptor [3] of 250 nM. For the same compound, in test [4], the “duration of total inhibition of U46619-induced ex vivo platelet aggregation” value is “at least 8 hours” and the “time of return of ex vivo platelet aggregation to predose values” turned out to be 24 h. Besides, in test [4] (for at least 8 hours), the “inhibition of U46619-induced ex vivo platelet aggregation” value is given as “totally inhibited”.
For `O=C(O)CCC=CCCC1C(OCc2ccc(-c3ccccc3)cc2)COC1c1cccnc1` (stereo not drawn) [Example 8(a), (Z)-(2α,3β,4β)-7-[4-(biphenyl-4-yl-methoxy)-2-(3-pyridyl)tetrahydrofuran-3-yl)hept-4-enoic acid], the IC50 was 28 nM against thromboxane-A2 receptor [2] and roughly 400 nM against thromboxane-A2 receptor [3].
